From the supplement of paper PMC11061612

Key:
[1] = compound: C1CC(C1)(C(=O)[O-])C(=O)[O-].N.N.[Pt+2] [Carboplatin]; settings: max 10 µM
Method in brief: (§1)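 Cancer cell lines were plated in 1536-well plates in 7.5 μl of DMEM/F12 or RPMI with 10% FBS and kept 24 hours at 37°C and 5% CO2 before 72 hours of dosing, with final DMSO typically 0.2%. CellTiter-Glo 2.0 luminescence measured viability, scaled between blank-well and DMSO-well means. Dose responses were fitted to a two-parameter logistic curve with a non-linear mixed effects model. This fit gives the single-agent IC50.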

[2] = compound: C1CN(CCC1(C(=O)N[C@@H](CCO)C2=CC=C(C=C2)Cl)N)C3=NC=NC4=C3C=CN4 [AZD5363]; settings: max 10 µM
Method in brief: as §1

[3] = compound: C=CCn1c(=O)c2cnc(Nc3ccc(N4CCN(C)CC4)cc3)nc2n1-c1cccc(C(C)(C)O)n1 [AZD1775]; settings: max 3 µM
Method in brief: as §1

[4] = compound: CC(=O)Nc1cccc(-n2c(=O)n(C3CC3)c(=O)c3c(Nc4ccc(I)cc4F)n(C)c(=O)c(C)c32)c1 [Trametinib]; settings: max 1 µM
Method in brief: as §1

[5] = compound: CC(=O)O[C@H]1C(=O)[C@@]2(C)[C@H]([C@H](OC(=O)c3ccccc3)[C@]3(O)C[C@H](OC(=O)[C@H](O)[C@@H](NC(=O)c4ccccc4)c4ccccc4)C(C)=C1C3(C)C)[C@]1(OC(C)=O)CO[C@@H]1C[C@@H]2O [Paclitaxel]; settings: max 3 µM
Method in brief: as §1

[6] = compound: CC(=O)c1c(C)c2cnc(Nc3ccc(N4CCNCC4)cn3)nc2n(C2CCCC2)c1=O [Palbociclib]; settings: max 10 µM
Method in brief: as §1

[7] = compound: CC(C)n1c(=O)n(C)c2cnc3cc(F)c(-c4ccc(OCCCN5CCCCC5)nc4)cc3c21 [AZD1390]; settings: max 0.3 µM
Method in brief: as §1

[8] = compound: CC1(C)CCC(CN2CCN(c3ccc(C(=O)NS(=O)(=O)c4ccc(NCC5CCOCC5)c([N+](=O)[O-])c4)c(Oc4cnc5[nH]ccc5c4)c3)CC2)=C(c2ccc(Cl)cc2)C1 [Venetoclax]; settings: max 1 µM
Method in brief: as §1

[9] = compound: CC1=C(C(=CC=C1)Cl)NC(=O)C2=CN=C(S2)NC3=CC(=NC(=N3)C)N4CCN(CC4)CCO [Dasatinib]; settings: max 2 µM
Method in brief: as §1

[10] = compound: CC1=CN2[C@@H](C1)C=NC3=CC(=C(C=C3C2=O)OC)OCCCCCOC4=C(C=C5C(=C4)N=C[C@@H]6CC(=CN6C5=O)C)OC [SG3199]; settings: max 0.001 µM
Method in brief: as §1

[11] = compound: CCN(CCO)CCCOc1ccc2c(Nc3cc(CC(=O)Nc4cccc(F)c4)[nH]n3)ncnc2c1 [AZD2811]; settings: max 1 µM
Method in brief: as §1

[12] = compound: CCc1c2c(nc3ccc(O)cc13)-c1cc3c(c(=O)n1C2)COC(=O)[C@]3(O)CC [SN-38]; settings: max 0.3 µM
Method in brief: as §1

[13] = compound: CN(C)CCCOc1ccc(-c2ccc3ncc4c(c3c2)n(C2CCOCC2)c(=O)n4C)cn1 [AZD0156]; settings: max 3 µM
Method in brief: as §1

[14] = compound: CN(CC[C@H](CSC1=CC=CC=C1)NC2=C(C=C(C=C2)S(=O)(=O)NC(=O)C3=CC=C(C=C3)N4CCC(CC4)[C@H](C5=CC=CC=C5C6=CC=C(C=C6)Cl)O)S(=O)(=O)C(F)(F)F)CCO [AZD4320]; settings: max 1 µM
Method in brief: as §1

[15] = compound: COc1cc(Nc2ncc3c(n2)-c2ccc(Cl)cc2C(c2c(F)cccc2OC)=NC3)ccc1C(=O)O [Alisertib]; settings: max 10 µM
Method in brief: as §1

[16] = compound: COc1cc([C@@H]2c3cc4c(cc3[C@@H](O[C@@H]3O[C@@H]5CO[C@@H](C)O[C@H]5[C@H](O)[C@H]3O)[C@H]3COC(=O)[C@H]23)OCO4)cc(OC)c1O [Etoposide]; settings: max 10 µM
Method in brief: as §1

[17] = compound: COc1cc2ncnc(Nc3ccc(F)c(Cl)c3)c2cc1OCCCN1CCOCC1 [Gefitinib]; settings: max 10 µM
Method in brief: as §1

[18] = compound: COc1cccc(OCCCN)c1-c1cc(Nc2cnc(C#N)cn2)n[nH]1 [Prexasertib]; settings: max 1 µM
Method in brief: as §1

[19] = compound: COc1cccc2c1C(=O)c1c(O)c3c(c(O)c1C2=O)C[C@@](O)(C(=O)CO)C[C@@H]3O[C@H]1C[C@H](N)[C@H](O)[C@H](C)O1 [Doxorubicin]; settings: max 1 µM
Method in brief: as §1

[20] = compound: COc1nnc2ccc(N3CCC(c4ccc(OCCN5CCN(C)C(=O)[C@H]5C)cc4)CC3)nn12 [AZD5153]; settings: max 1 µM
Method in brief: as §1

[21] = compound: CS(=O)(=O)CCNCc1ccc(-c2ccc3ncnc(Nc4ccc(OCc5cccc(F)c5)c(Cl)c4)c3c2)o1 [Lapatinib]; settings: max 10 µM
Method in brief: as §1

[22] = compound: C[C@@H](Nc1cc(F)cc(F)c1)c1cc(C(=O)N(C)C)cc2c(=O)cc(N3CCOCC3)oc12 [AZD8186]; settings: max 10 µM
Method in brief: as §1

[23] = compound: C[C@@H](Oc1cc(-c2cnn(C3CCNCC3)c2)cnc1N)c1c(Cl)ccc(F)c1Cl [Crizotinib]; settings: max 10 µM
Method in brief: as §1

[24] = compound: C[C@@H](c1ccc2nccn2c1)n1nnc2ncc(-c3cnn(C)c3)nc21 [Savolitinib]; settings: max 1 µM
Method in brief: as §1

[25] = compound: C[C@@H]1COCCN1C2=NC(=NC(=C2)C3(CC3)[S@](=N)(=O)C)C4=C5C=CNC5=NC=C4 [AZD6738]; settings: max 10 µM
Method in brief: as §1

[26] = compound: Cc1c2c(nn1C)CSCc1cc(n(C)n1)CSc1cc(c3ccccc3c1)OCCCc1c(C(=O)O)n(C)c3c-2c(Cl)ccc13 [AZD5991]; settings: max 1 µM
Method in brief: as §1

[27] = compound: Cc1cc2ncnn2cc1Nc1ncc2c(n1)n(C1CCOCC1)c(=O)n2C [AZD7648]; settings: max 10 µM
Method in brief: as §1

[28] = compound: Cc1nc(-c2cn3c(n2)-c2ccc(-c4cnn(C(C)(C)C(N)=O)c4)cc2OCC3)n(C(C)C)n1 [Taselisib]; settings: max 10 µM
Method in brief: as §1

[29] = compound: Cn1cnc2c(F)c(Nc3ccc(Br)cc3Cl)c(C(=O)NOCCO)cc21 [Selumetinib]; settings: max 10 µM
Method in brief: as §1

[30] = compound: N#Cc1cnc(Nc2cc(NC[C@H]3CNCCO3)c(C(F)(F)F)cn2)cn1 [SRA737]; settings: max 10 µM
Method in brief: as §1

[31] = compound: NC1(c2ccc(-c3nc4ccn5c(=O)[nH]nc5c4cc3-c3ccccc3)cc2)CCC1 [MK-2206]; settings: max 10 µM
Method in brief: as §1

[32] = compound: Nc1ccn([C@@H]2O[C@H](CO)[C@@H](O)C2(F)F)c(=O)n1 [Gemcitabine]; settings: max 0.3 µM
Method in brief: as §1

[33] = compound: O=C(Nc1ccc2[nH]nc(-c3ccncc3)c2c1)[C@@H]1CCN(CC(=O)N2CCN(c3ccc(-c4ncccn4)cc3)CC2)C1; settings: max 5 µM
Method in brief: as §1

[34] = compound: O=C(c1cc(Cc2n[nH]c(=O)c3ccccc23)ccc1F)N1CCN(C(=O)C2CC2)CC1 [Olaparib]; settings: max 10 µM
Method in brief: as §1

[35] = compound: O=c1[nH]cc(F)c(=O)[nH]1 [5-Fluorouracil]; settings: max 20 µM
Method in brief: as §1

Row | Cell Line | IC50, cell viability 72 h [1] [µM] | IC50, cell viability 72 h [2] [µM] | IC50, cell viability 72 h [3] [µM] | IC50, cell viability 72 h [4] [µM] | IC50, cell viability 72 h [5] [µM] | IC50, cell viability 72 h [6] [µM] | IC50, cell viability 72 h [7] [µM] | IC50, cell viability 72 h [8] [µM] | IC50, cell viability 72 h [9] [µM] | IC50, cell viability 72 h [10] [µM] | IC50, cell viability 72 h [11] [µM] | IC50, cell viability 72 h [12] [µM] | IC50, cell viability 72 h [13] [µM] | IC50, cell viability 72 h [14] [µM] | IC50, cell viability 72 h [15] [µM] | IC50, cell viability 72 h [16] [µM] | IC50, cell viability 72 h [17] [µM] | IC50, cell viability 72 h [18] [µM] | IC50, cell viability 72 h [19] [µM] | IC50, cell viability 72 h [20] [µM] | IC50, cell viability 72 h [21] [µM] | IC50, cell viability 72 h [22] [µM] | IC50, cell viability 72 h [23] [µM] | IC50, cell viability 72 h [24] [µM] | IC50, cell viability 72 h [25] [µM] | IC50, cell viability 72 h [26] [µM] | IC50, cell viability 72 h [27] [µM] | IC50, cell viability 72 h [28] [µM] | IC50, cell viability 72 h [29] [µM] | IC50, cell viability 72 h [30] [µM] | IC50, cell viability 72 h [31] [µM] | IC50, cell viability 72 h [32] [µM] | IC50, cell viability 72 h [33] [µM] | IC50, cell viability 72 h [34] [µM] | IC50, cell viability 72 h [35] [µM]
1 | SW13 (Other Solid Carcinomas) | > 10 | > 10 | > 3 | 0.804 | 0.00609 | > 10 | > 0.3 | > 1 | 1.25 | > 0.001 | > 1 | 0.00519 | > 3 | > 1 | > 10 | 4.89 | > 10 | > 1 | 0.394 | > 1 | 4.46 | > 10 | > 10 | > 1 | > 10 | 0.212 | > 10 | > 10 | > 10 | > 10 | > 10 | 0.0271 | > 5 | > 10 | > 20
2 | TGW (Neuroblastoma) | > 10 | > 10 | 0.571 | > 1 | 0.108 | > 10 | > 0.3 | > 1 | > 2 | > 0.001 | > 1 | 0.0505 | > 3 | 0.127 | 0.162 | > 10 | > 10 | 0.0277 | 0.521 | > 1 | > 10 | > 10 | 6.84 | > 1 | 7.37 | > 1 | > 10 | > 10 | > 10 | > 10 | > 10 | 0.159 | > 5 | > 10 | > 20
